Assay results reported in paper PMC5567169 (Emerging Microbes & Infections, 2017).

Key:
FtlA [1] = target: T1, FtlA (Francisella tularensis, UniProt A0AAI8BGE8)
T1 construct: gene FTL_0430

FtlA [2] = target: T1, FtlA; remark: listed apart in the source

T1 sequence (A0AAI8BGE8 1-293): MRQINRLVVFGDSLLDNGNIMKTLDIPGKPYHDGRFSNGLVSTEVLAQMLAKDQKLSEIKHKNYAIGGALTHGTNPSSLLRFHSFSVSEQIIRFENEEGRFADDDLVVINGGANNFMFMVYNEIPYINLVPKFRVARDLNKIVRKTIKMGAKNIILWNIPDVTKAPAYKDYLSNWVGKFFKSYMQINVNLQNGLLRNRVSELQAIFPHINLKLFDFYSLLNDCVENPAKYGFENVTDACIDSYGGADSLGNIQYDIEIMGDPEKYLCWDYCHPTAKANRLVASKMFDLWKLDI

Row | SMILES | p-nitrophenyl ester hydrolysis by purified OMVs (FtlA [1]) | halo (clear zone) assay on agar plates (FtlA [2])
1 | CCCC(=O)Oc1ccc([N+](=O)[O-])cc1 [p-nitrophenyl butyrate (C4)] | OMVs of the wild-type LVS hydrolyzed p-nitrophenyl butyrate (C4) efficiently | –
2 | CCCC(=O)OCC(COC(=O)CCC)OC(=O)CCC [tributyrin] | – | E. coli strain harboring the FtlA-expressing plasmid (pST2000) showed a clear zone of halo
